# According to patent US6458746B1, “Plant growth regulating formulations” (BASF Aktiengesellschaft, priority 1998, dated 2002):
# Columns and labels:
# Assay type in all cases: in vivo
# [1] = system: small grains and rice (wheat, barley, oats, rye, rice); test: Shoot length reduction in small grains and rice (statements across species); details: for activity in the other plant species compared with wheat: plant species other than wheat; for dosages needed to obtain results equivalent to compounds VI, VII, and IX: in these plant species, applied in commercial formulations; for shoot length reduction compared with compounds II to V: Examples 1 and 2; for activity-enhancing effects of ethoxylated castor oil R 15: barley and wheat, Example 5
# Description: (§1) Unless otherwise noted, the growth regulating proerties of different compounds in different formulations were determined under greenhouse conditions as follows: […]
# (§2) Test plants were grown in plastic pots of approximately 12.5 cm in diameter in a substrate provided with sufficient nutrients and water. At an appropriate shoot length the plants were treated with aqueous sprays of the formulations. The growth-regulating action observed was confirmed at the end of the experiment by measuring the height of the plants. The results obtained were compared with the growth height of the untreated plants.
# wheat = test: Greenhouse shoot length test, wheat; details: for dosages of active ingredient needed to obtain results equivalent to compounds VI, VII, and IX: in wheat; for Shoot length reduction [activity, relative to control] in wheat: 1% formulations in cyclohexanone: Emulan EL = 4:1; for Shoot length Wheat [% of control]: 1% formulations in Atlas G 1086
# Description: as §1, §2
# (§3) Assays with wheat, barley, oat, and rye plants were carried out as described above. The aqueous spray solutions were prepared as follows: […]
# barley = test: Greenhouse shoot length test, barley; details: for Shoot length reduction [activity, relative to control] in barley: 1% formulations in cyclohexanone: Emulan EL = 4:1; for Shoot length Barley [% of control]: 1% formulations in Atlas G 1086; as to Shoot length reduction [activity, relative to control] in barley: key: 0: no effect; +: low activity; ++: intermediate activity; +++: high activity
# Description: as §1, §2, §3
# rye = test: Greenhouse shoot length test, rye; details: 1% formulations in cyclohexanone: Emulan EL = 4:1; also: key: 0: no effect; +: low activity; ++: intermediate activity; +++: high activity
# Description: as §1, §2
# oats = test: Greenhouse shoot length test, oats; details: 1% formulations in cyclohexanone: Emulan EL = 4:1; also: key: 0: no effect; +: low activity; ++: intermediate activity; +++: high activity
# Description: as §1, §2
# [2] = system: spring wheat (cv. “Ralle”); test: Shoot height reduction in spring wheat, synergistic combinations
# Description: as §1, §2
# (§4) To show the synergistic effects of formulations in accordance with the instant invention together with further growth regulating agents, formulations in accordance with the invention were prepared and additional active ingredients added.
# Shoot height reduction in spring wheat (cv. “Ralle”) 21 days after treatment with combinations of standard compound S4 and compound VII
# Shoot height reduction in spring wheat (cv. “Ralle”) 13 days after treatment with combinations of standard compound S5 and compound VII
# rice = test: Greenhouse shoot length test, rice; details: 1% formulations in cyclohexanone: Emulan EL = 4:1; also: key: 0: no effect; +: low activity; ++: intermediate activity; +++: high activity
# Description: as §1, §2
# [3] = system: spring barley (cv. “Alexis”); test: Shoot height reduction in spring barley, synergistic combinations; details: 20 days after treatment
# Description: as §1, §2, §4
# Shoot height reduction in spring barley (cv. “Alexis”) 20 days after treatment with combinations of standard compound S2 and compound VII
# Shoot height reduction in spring barley (cv. “Alexis”) 20 days after treatment with combinations of standard compound S4 and compound VII
# [4] = system: rice seedlings [cvs. “Koshihikari” (tall), “Tan-ginbozu” (dwarf), “Waito C” (dwarf)]; test: Shoot growth of rice seedlings, combinations with GA3; details: 7 days after treatment, 1 kg/ha ammonium sulphate added; for Shoot growth Waito C [% of Control]: 100% = 8.7 cm; for Shoot growth Tan-ginbozu [% of Control]: 100% = 9.4 cm; for Shoot growth Koshihikari [% of Control]: 100% = 17.4 cm
# Description: as §1, §2
# The synergizing effect of compound VII on shoot elongation in rice is shown in the results of Example 7.
# Enhanced shoot growth of rice seedlings [cvs. “Koshihikari” tall), “Tan-ginbozu” (dwarf), “Waito C” (dwarf)] 7 days after treatment with combinations of compound 6 with GA3^d
# [5] = 750 g/ha ai, adjuvant R 15 500 g/ha
# [6] = 250 g/ha ai, adjuvant R 15 500 g/ha
compound,measurement,setting,value
"C[N+]1(C)CCCCC1 [S3, mepiquat chloride, reference compound]",activity in the other plant species compared with wheat,[1],significantly less active
same,"dosages of active ingredient needed to obtain results equivalent to compounds VI, VII, and IX",wheat,approximately 100 times higher
"Dichloromethano-16,17-dihydro-GA5-13-acetate [Comp. V]","Shoot length reduction [activity, relative to control] in barley",barley,0
same,Shoot length Barley [% of control],barley; 1.6 g/ha ai,99 % of control
same,Shoot length Barley [% of control],barley; 3.1 g/ha ai,97 % of control
same,Shoot length Barley [% of control],barley; 6.3 g/ha ai,82 % of control
same,Shoot length Barley [% of control],barley; 12.5 g/ha ai,76 % of control
same,"Shoot length reduction [activity, relative to control] in rye",rye,+
same,"Shoot length reduction [activity, relative to control] in oats",oats,+
same,"Shoot length reduction [activity, relative to control] in wheat",wheat,0
same,Shoot length Wheat [% of control],wheat; 1.6 g/ha ai,101 % of control
same,Shoot length Wheat [% of control],wheat; 3.1 g/ha ai,95 % of control
same,Shoot length Wheat [% of control],wheat; 6.3 g/ha ai,84 % of control
same,Shoot length Wheat [% of control],wheat; 12.5 g/ha ai,75 % of control
"CCOC(=O)C1CC(=O)C(=C(O)C2CC2)C(=O)C1 (centres unmarked) [S5, trinexapac-ethyl, reference compound]","dosages needed to obtain results equivalent to compounds VI, VII, and IX",[1],approximately 20 times higher
same,% Shoot height reduction Actual,"[2]; 30 g/ha a.i., 13 days after treatment",14%
"CC(=O)OC12CCC3C(CC1C)(C2)C(C(=O)O)C1C2(C)C=CCC13OC2=O (stereo not drawn) [Comp. VI, endo-16,17-Dihydro-GA5-13-acetate]","Shoot length reduction [activity, relative to control] in rice",rice,+++
same,shoot length reduction compared with compounds II to V,[1],superior to compounds II to V
same,"Shoot length reduction [activity, relative to control] in barley",barley,+++
same,Shoot length Barley [% of control],barley; 1.6 g/ha ai,95 % of control
same,Shoot length Barley [% of control],barley; 3.1 g/ha ai,84 % of control
same,Shoot length Barley [% of control],barley; 6.3 g/ha ai,65 % of control
same,Shoot length Barley [% of control],barley; 12.5 g/ha ai,53 % of control
same,"Shoot length reduction [activity, relative to control] in rye",rye,+++
same,"Shoot length reduction [activity, relative to control] in oats",oats,++
same,"Shoot length reduction [activity, relative to control] in wheat",wheat,+++
same,Shoot length Wheat [% of control],wheat; 1.6 g/ha ai,88 % of control
same,Shoot length Wheat [% of control],wheat; 3.1 g/ha ai,88 % of control
same,Shoot length Wheat [% of control],wheat; 6.3 g/ha ai,68 % of control
same,Shoot length Wheat [% of control],wheat; 12.5 g/ha ai,64 % of control
"C[N+](C)(C)CCCl [S2, chlormequat chloride, reference compound]",activity-enhancing effects of ethoxylated castor oil R 15,[1],not or only at a far lower degree found
same,activity in the other plant species compared with wheat,[1],significantly less active
same,Shoot length [% of control] Barley,barley; [5],94 % of control
same,Shoot length [% of control] Barley,"barley; 750 g/ha ai, no adjuvant",94 % of control
same,% Shoot height reduction Actual,[3]; 750 g/ha a.i.,11%
same,% Shoot height reduction Actual,[3]; 1500 g/ha a.i.,10%
same,Shoot length [% of control] Wheat,wheat; [5],75 % of control
same,Shoot length [% of control] Wheat,"wheat; 750 g/ha ai, no adjuvant",83 % of control
same,"dosages of active ingredient needed to obtain results equivalent to compounds VI, VII, and IX",wheat,approximately 100 times higher
"O=P(O)(O)CCCl [S1, ethephon, reference compound]",activity-enhancing effects of ethoxylated castor oil R 15,[1],not or only at a far lower degree found
same,"dosages needed to obtain results equivalent to compounds VI, VII, and IX",[1],approximately 20 times higher
same,Shoot length [% of control] Barley,barley; [6],101 % of control
same,Shoot length [% of control] Barley,"barley; 250 g/ha ai, no adjuvant",95 % of control
same,Shoot length [% of control] Wheat,wheat; [6],92 % of control
same,Shoot length [% of control] Wheat,"wheat; 250 g/ha ai, no adjuvant",93 % of control
"CCCO[C@]12CC[C@@H]3[C@](C[C@H]1C)(C2)[C@@H](C(=O)O)[C@H]1[C@@]32CC=C[C@]1(C)C(=O)O2 [Comp. IX, exo-16,17-Dihydro-GA5-13-n-propyl ether]","Shoot length reduction [activity, relative to control] in rice",rice,++
same,shoot length reduction compared with compounds II to V,[1],superior to compounds II to V
same,"Shoot length reduction [activity, relative to control] in barley",barley,++
same,"Shoot length reduction [activity, relative to control] in rye",rye,++
same,"Shoot length reduction [activity, relative to control] in oats",oats,++
same,"Shoot length reduction [activity, relative to control] in wheat",wheat,++
"CC1CC23CC1(O)CCC2C12CC=CC(C)(C(=O)O1)C2C3C(=O)O (stereo not drawn) [Comp. II, exo-16,17-Dihydro-GA5]","Shoot length reduction [activity, relative to control] in barley",barley,+
same,"Shoot length reduction [activity, relative to control] in rye",rye,++
same,"Shoot length reduction [activity, relative to control] in oats",oats,0
same,"Shoot length reduction [activity, relative to control] in wheat",wheat,+
"endo-16,17-Dihydro-GA5 [Comp. III]","Shoot length reduction [activity, relative to control] in barley",barley,++
same,"Shoot length reduction [activity, relative to control] in rye",rye,+++
same,"Shoot length reduction [activity, relative to control] in oats",oats,0
same,"Shoot length reduction [activity, relative to control] in wheat",wheat,++
"prohexadione-Ca [S4, reference compound]","dosages needed to obtain results equivalent to compounds VI, VII, and IX",[1],approximately 20 times higher
same,% Shoot height reduction Actual,"[2]; 30 g/ha a.i., 21 days after treatment",6%
same,% Shoot height reduction Actual,"[2]; 60 g/ha a.i., 21 days after treatment",15%
"C=C1C[C@]23C[C@@]1(O)CC[C@H]2[C@@]12C=C[C@H](O)[C@@](C)(C(=O)O1)[C@H]2[C@@H]3C(=O)O (single isomer, unassigned; ent-3) [S6, ent-3α,10,13-trihydroxy-20-norgiberrell-1,16-diene-7,19-dioic acid 19,10-lactone, reference compound]",Shoot growth Waito C [% of Control],[4]; S6 1.25 g/ha ai,115 % of Control
same,Shoot growth Tan-ginbozu [% of Control],[4]; S6 1.25 g/ha ai,128 % of Control
same,Shoot growth Koshihikari [% of Control],[4]; S6 1.25 g/ha ai,109 % of Control
same,Shoot growth Waito C [% of Control],[4]; S6 2.50 g/ha ai,143 % of Control
same,Shoot growth Tan-ginbozu [% of Control],[4]; S6 2.50 g/ha ai,160 % of Control
same,Shoot growth Koshihikari [% of Control],[4]; S6 2.50 g/ha ai,112 % of Control
same,Shoot growth Waito C [% of Control],[4]; S6 5.00 g/ha ai,190 % of Control
same,Shoot growth Tan-ginbozu [% of Control],[4]; S6 5.00 g/ha ai,186 % of Control
same,Shoot growth Koshihikari [% of Control],[4]; S6 5.00 g/ha ai,124 % of Control
